Tested on: MV-4-11 cells
Assay: Gene expression microarray analysis (Affymetrix PrimeView) and GSEA
Type: cell-based, human
Set-up: RFU PODN (11730768_x_at) / Fold change /veh PODN (11730768_x_at) / RFU LINC00158 (11744669_a_at) / Fold change /veh LINC00158 (11744669_a_at) / RFU DUSP10 (11751237_a_at) / Fold change /veh DUSP10 (11751237_a_at) / RFU ID3 (11757404_x_at) / Fold change /veh ID3 (11757404_x_at) / RFU PLEKHG5 (11737974_s_at) / Fold change /veh PLEKHG5 (11737974_s_at) / RFU LRRC4B (11730491_at) / Fold change /veh LRRC4B (11730491_at) / RFU GIMAP4 (11747438_a_at) / Fold change /veh GIMAP4 (11747438_a_at) / RFU KRT8 (11758183_x_at) / Fold change /veh KRT8 (11758183_x_at) / RFU CNN1 (11734310_a_at) / Fold change /veh CNN1 (11734310_a_at) / RFU VPS37D (11726825_at) / Fold change /veh VPS37D (11726825_at) / RFU C10orf10 (11716522_x_at) / Fold change /veh C10orf10 (11716522_x_at) / RFU KIR2DL2 /// KIR2DL4 /// KIR2DL5A /// KIR2DL5B /// KIR2DS1 /// KIR2DS2 /// KIR2DS3 /// KIR2DS4 /// KIR3DL3 /// KIR3DL3 /// KIR3DS1 (11738374_at) / Fold change /veh KIR2DL2 /// KIR2DL4 /// KIR2DL5A /// KIR2DL5B /// KIR2DS1 /// KIR2DS2 /// KIR2DS3 /// KIR2DS4 /// KIR3DL3 /// KIR3DL3 /// KIR3DS1 (11738374_at) / RFU C1QL1 (11718748_at) / Fold change /veh C1QL1 (11718748_at) / RFU TMPRSS4 (11747572_a_at) / Fold change /veh TMPRSS4 (11747572_a_at) / RFU HAMP (11756126_x_at) / Fold change /veh HAMP (11756126_x_at) / RFU RNFT2 (11725882_a_at) / Fold change /veh RNFT2 (11725882_a_at) / RFU NR4A2 (11747474_a_at) / Fold change /veh NR4A2 (11747474_a_at) / RFU ABCC12 (11746883_a_at) / Fold change /veh ABCC12 (11746883_a_at) / RFU TMEM136 (11760407_x_at) / Fold change /veh TMEM136 (11760407_x_at) / RFU CLDN22 /// WWC2 (11732394_at) / Fold change /veh CLDN22 /// WWC2 (11732394_at) / RFU HLA-DPB1 (11760878_x_at) / Fold change /veh HLA-DPB1 (11760878_x_at) / RFU SPINT1 (11716480_a_at) / Fold change /veh SPINT1 (11716480_a_at) / RFU GAP43 (11754022_s_at) / Fold change /veh GAP43 (11754022_s_at) / RFU A4GNT (11735810_at) / Fold change /veh A4GNT (11735810_at) / RFU PRB3 (11715151_x_at) / Fold change /veh PRB3 (11715151_x_at) / RFU TUBB4B (11761932_at) / Fold change /veh TUBB4B (11761932_at) / RFU CAPN14 (11732068_a_at) / Fold change /veh CAPN14 (11732068_a_at) / RFU TMCC2 (11721928_a_at) / Fold change /veh TMCC2 (11721928_a_at) / RFU IRGQ (11745062_a_at) / Fold change /veh IRGQ (11745062_a_at) / RFU FAM174B (11720279_a_at) / Fold change /veh FAM174B (11720279_a_at) / RFU TMPRSS4 (11748680_a_at) / Fold change /veh TMPRSS4 (11748680_a_at) / RFU FAM212B (11763350_a_at) / Fold change /veh FAM212B (11763350_a_at) / RFU PLEKHG5 (11743358_a_at) / Fold change /veh PLEKHG5 (11743358_a_at) / RFU ZSCAN30 (11745921_a_at) / Fold change /veh ZSCAN30 (11745921_a_at) / RFU CMKLR1 (11741424_a_at) / Fold change /veh CMKLR1 (11741424_a_at) / RFU LOC101060620 /// MAPK8IP1 (11723275_at) / Fold change /veh LOC101060620 /// MAPK8IP1 (11723275_at) / RFU SPTSSB (11747773_x_at) / Fold change /veh SPTSSB (11747773_x_at) / RFU PRSS12 (11739890_at) / Fold change /veh PRSS12 (11739890_at) / RFU BIN1 (11741810_x_at) / Fold change /veh BIN1 (11741810_x_at) / RFU WNT11 (11732464_a_at) / Fold change /veh WNT11 (11732464_a_at) / RFU C10orf10 (11716521_a_at) / Fold change /veh C10orf10 (11716521_a_at) / RFU C5orf56 (11738089_at) / Fold change /veh C5orf56 (11738089_at) / RFU CYB561 (11721691_x_at) / Fold change /veh CYB561 (11721691_x_at) / RFU ANKRD19P (11752326_a_at) / Fold change /veh ANKRD19P (11752326_a_at) / RFU OR2T12 /// OR2T33 /// OR2T8 (11738714_s_at) / Fold change /veh OR2T12 /// OR2T33 /// OR2T8 (11738714_s_at) / RFU VCAN (11748164_a_at) / Fold change /veh VCAN (11748164_a_at) / RFU JSRP1 (11732532_at) / Fold change /veh JSRP1 (11732532_at) / RFU KRTAP10-11 (11738290_x_at) / Fold change /veh KRTAP10-11 (11738290_x_at) / RFU MYO3A (11730013_a_at) / Fold change /veh MYO3A (11730013_a_at) / RFU EBF3 (11725865_a_at) / Fold change /veh EBF3 (11725865_a_at) / RFU CAMK2N1 (11719241_x_at) / Fold change /veh CAMK2N1 (11719241_x_at) / RFU C5orf56 (11738088_a_at) / Fold change /veh C5orf56 (11738088_a_at) / RFU OLFML3 (11715873_a_at) / Fold change /veh OLFML3 (11715873_a_at) / RFU LOC100653217 /// NTM (11731650_a_at) / Fold change /veh LOC100653217 /// NTM (11731650_a_at) / RFU MAPK11 (11762145_a_at) / Fold change /veh MAPK11 (11762145_a_at) / RFU FIZ1 (11724087_x_at) / Fold change /veh FIZ1 (11724087_x_at) / RFU OASL (11726364_x_at) / Fold change /veh OASL (11726364_x_at) / RFU SOX15 (11748057_x_at) / Fold change /veh SOX15 (11748057_x_at) / RFU CD79A (11719716_a_at) / Fold change /veh CD79A (11719716_a_at) / RFU HIST1H1D (11736915_at) / Fold change /veh HIST1H1D (11736915_at) / RFU CASKIN2 (11723855_a_at) / Fold change /veh CASKIN2 (11723855_a_at) / RFU LOC730098 (11760151_x_at) / Fold change /veh LOC730098 (11760151_x_at) / RFU OR4N2 (11742367_at) / Fold change /veh OR4N2 (11742367_at) / RFU PRRT2 (11749266_a_at) / Fold change /veh PRRT2 (11749266_a_at) / RFU SNX32 (11753110_a_at) / Fold change /veh SNX32 (11753110_a_at) / RFU CDHR5 (11726645_a_at) / Fold change /veh CDHR5 (11726645_a_at) / RFU RCAN1 (11760418_a_at) / Fold change /veh RCAN1 (11760418_a_at) / RFU FAM167A (11723789_a_at) / Fold change /veh FAM167A (11723789_a_at) / RFU FAM26E (11764081_at) / Fold change /veh FAM26E (11764081_at) / RFU ISYNA1 (11749810_s_at) / Fold change /veh ISYNA1 (11749810_s_at) / RFU ACY1 (11761880_at) / Fold change /veh ACY1 (11761880_at) / RFU 11764098_at / Fold change /veh 11764098_at / RFU SAMD14 (11745864_x_at) / Fold change /veh SAMD14 (11745864_x_at) / RFU NPB (11741838_a_at) / Fold change /veh NPB (11741838_a_at) / RFU TMPRSS6 (11731388_a_at) / Fold change /veh TMPRSS6 (11731388_a_at) / RFU KRTAP10-2 (11738614_at) / Fold change /veh KRTAP10-2 (11738614_at) / RFU ARHGAP8 /// PRR5-ARHGAP8 (11727945_x_at) / Fold change /veh ARHGAP8 /// PRR5-ARHGAP8 (11727945_x_at) / RFU KRTAP5-7 /// NADSYN1 (11734609_at) / Fold change /veh KRTAP5-7 /// NADSYN1 (11734609_at) / RFU RASL12 (11751679_a_at) / Fold change /veh RASL12 (11751679_a_at) / RFU CDKN2B (11736163_a_at) / Fold change /veh CDKN2B (11736163_a_at) / RFU PRF1 (11729649_at) / Fold change /veh PRF1 (11729649_at) / RFU, ZNF638 /// ZNF638-IT1 / Fold change vs veh, ZNF638 /// ZNF638-IT1 / RFU, PANK3 / Fold change vs veh, PANK3 / RFU, SH3YL1 / Fold change vs veh, SH3YL1 / RFU, ZEB2 / Fold change vs veh, ZEB2 / RFU, NRIP1 / Fold change vs veh, NRIP1 / RFU, PTTG1IP / Fold change vs veh, PTTG1IP / RFU, CAPN2 / Fold change vs veh, CAPN2 / RFU, MED14 / Fold change vs veh, MED14 / RFU, SNORA58 / Fold change vs veh, SNORA58 / RFU, C1orf63 / Fold change vs veh, C1orf63 / RFU, LRRFIP1 / Fold change vs veh, LRRFIP1 / RFU, NDUFAF7 / Fold change vs veh, NDUFAF7 / RFU, SLC12A2 / Fold change vs veh, SLC12A2 / RFU, IBTK / Fold change vs veh, IBTK / RFU, ESF1 / Fold change vs veh, ESF1 / Fold change vs veh, TMEM50B / RFU, TAOK1 / Fold change vs veh, TAOK1 / RFU, ACBD3 / Fold change vs veh, ACBD3 / RFU, TMA16 / Fold change vs veh, TMA16 / RFU, RWDD3 / Fold change vs veh, RWDD3 / RFU, BCAT1 / Fold change vs veh, BCAT1 / RFU, EDEM3 / Fold change vs veh, EDEM3 / RFU, TMEM33 / Fold change vs veh, TMEM33 / RFU, WDR75 / Fold change vs veh, WDR75 / RFU, AHCTF1 / Fold change vs veh, AHCTF1 / RFU, TFRC / Fold change vs veh, TFRC / RFU, ZDHHC17 / Fold change vs veh, ZDHHC17 / RFU, NOM1 / Fold change vs veh, NOM1 / RFU, ARL8B / Fold change vs veh, ARL8B / RFU, ZBTB11 / Fold change vs veh, ZBTB11 / RFU, TAMM41 / Fold change vs veh, TAMM41 / RFU, KIAA1704 /// LOC100996395 / Fold change vs veh, KIAA1704 /// LOC100996395 / RFU, ING1 / Fold change vs veh, ING1 / RFU, TRMT61B / Fold change vs veh, TRMT61B / RFU, FUBP3 / Fold change vs veh, FUBP3 / RFU, TP53 / Fold change vs veh, TP53 / RFU, TNKS2 / Fold change vs veh, TNKS2 / RFU, ZFP14 / Fold change vs veh, ZFP14 / RFU, ACTR2 / Fold change vs veh, ACTR2 / RFU, PPP3R1 / Fold change vs veh, PPP3R1 / RFU, PIK3R1 / Fold change vs veh, PIK3R1 / RFU, HNRNPA1 / Fold change vs veh, HNRNPA1 / RFU, RNF170 / Fold change vs veh, RNF170 / RFU, ZNF28 / Fold change vs veh, ZNF28 / RFU, RNGTT / Fold change vs veh, RNGTT / RFU, OGT / Fold change vs veh, OGT / RFU, BRD1 / Fold change vs veh, BRD1 / RFU, MARS / Fold change vs veh, MARS / RFU, ZNF655 / Fold change vs veh, ZNF655 / RFU, FAHD1 / Fold change vs veh, FAHD1 / RFU, BDP1 / Fold change vs veh, BDP1 / RFU, LRRCC1 / Fold change vs veh, LRRCC1 / RFU, ARID1A / Fold change vs veh, ARID1A / RFU, ZNF146 / Fold change vs veh, ZNF146 / RFU, ZNF330 / Fold change vs veh, ZNF330 / RFU, GPN3 / Fold change vs veh, GPN3 / RFU, C9orf123 / Fold change vs veh, C9orf123 / RFU, N4BP2L2 / Fold change vs veh, N4BP2L2 / RFU, ARFIP1 / Fold change vs veh, ARFIP1 / RFU, FAM179B / Fold change vs veh, FAM179B / RFU, BCL10 / Fold change vs veh, BCL10 / RFU, UHRF1BP1L / Fold change vs veh, UHRF1BP1L / RFU, BET1 / Fold change vs veh, BET1 / RFU, CNOT2 / Fold change vs veh, CNOT2 / RFU, ZNF268 / Fold change vs veh, ZNF268 / Fold change vs veh, ZNF507 / RFU, DGCR2 / Fold change vs veh, DGCR2 / RFU, WDSUB1 / Fold change vs veh, WDSUB1 / Fold change vs veh, HSP90B1 /// MIR3652 / RFU, ADSS / Fold change vs veh, ADSS / RFU, GK / Fold change vs veh, GK / RFU, ZNF148 / Fold change vs veh, ZNF148 / RFU, TAF9 / Fold change vs veh, TAF9 / RFU, SLC1A5 / Fold change vs veh, SLC1A5 / RFU, SLMO2 / Fold change vs veh, SLMO2 / RFU, ABCC4 / Fold change vs veh, ABCC4 / RFU, LOC101060439 /// RAP1B / Fold change vs veh, LOC101060439 /// RAP1B / RFU, RFX7 / Fold change vs veh, RFX7 / RFU, GTPBP10 / Fold change vs veh, GTPBP10 / RFU, CNEP1R1 / Fold change vs veh, CNEP1R1 / RFU, BIVM-ERCC5 /// ERCC5 / Fold change vs veh, BIVM-ERCC5 /// ERCC5 / RFU, ILF3 / Fold change vs veh, ILF3 / RFU 11762660_at / Fold change /veh 11762660_at / RFU VCAN (11757783_s_at) / Fold change /veh VCAN (11757783_s_at) / RFU DDX43 (11728927_at) / Fold change /veh DDX43 (11728927_at) / RFU KRT8 (11758188_x_at) / Fold change /veh KRT8 (11758188_x_at) / RFU NKD1 (11759106_at) / Fold change /veh NKD1 (11759106_at) / RFU SRD5A1 (11742802_a_at) / Fold change /veh SRD5A1 (11742802_a_at) / RFU TPSAB1 /// TPSB2 (11721975_s_at) / Fold change /veh TPSAB1 /// TPSB2 (11721975_s_at) / RFU GSTM3 (11746129_a_at) / Fold change /veh GSTM3 (11746129_a_at) / RFU IL23R (11737362_x_at) / Fold change /veh IL23R (11737362_x_at) / RFU TMEM51 (11727254_a_at) / Fold change /veh TMEM51 (11727254_a_at) / RFU PIWIL2 (11732686_x_at) / Fold change /veh PIWIL2 (11732686_x_at) / RFU ORM1 (11744905_x_at) / Fold change /veh ORM1 (11744905_x_at) / RFU CCDC152 (11743942_at) / Fold change /veh CCDC152 (11743942_at) / RFU ECM1 (11717891_a_at) / Fold change /veh ECM1 (11717891_a_at) / RFU IL23R (11748794_a_at) / Fold change /veh IL23R (11748794_a_at) / RFU TNFAIP8L3 (11732012_x_at) / Fold change /veh TNFAIP8L3 (11732012_x_at) / RFU MBOAT4 (11741988_at) / Fold change /veh MBOAT4 (11741988_at) / RFU 11764193_at / Fold change /veh 11764193_at / RFU TMEM53 (11763286_at) / Fold change /veh TMEM53 (11763286_at) / RFU MAGEB2 (11727129_at) / Fold change /veh MAGEB2 (11727129_at) / RFU TMEM200A (11744735_a_at) / Fold change /veh TMEM200A (11744735_a_at) / RFU CCDC152 (11751479_a_at) / Fold change /veh CCDC152 (11751479_a_at) / RFU FAM211A (11726209_a_at) / Fold change /veh FAM211A (11726209_a_at) / RFU RGS16 (11746705_a_at) / Fold change /veh RGS16 (11746705_a_at) / RFU VCAN (11755009_s_at) / Fold change /veh VCAN (11755009_s_at) / RFU RHOB (11743442_s_at) / Fold change /veh RHOB (11743442_s_at) / RFU RGS16 (11720943_a_at) / Fold change /veh RGS16 (11720943_a_at) / RFU RGS16 (11720944_at) / Fold change /veh RGS16 (11720944_at) / RFU, VPS4B / Fold change vs veh, VPS4B / RFU, CREB1 / Fold change vs veh, CREB1 / RFU, DNAJC13 / Fold change vs veh, DNAJC13 / RFU, GNAQ / Fold change vs veh, GNAQ / RFU, CDK5R1 / Fold change vs veh, CDK5R1 / RFU, ZRANB3 / Fold change vs veh, ZRANB3 / RFU, CUL4A / Fold change vs veh, CUL4A / RFU, CCNY / Fold change vs veh, CCNY / RFU, UFL1 / Fold change vs veh, UFL1 / RFU, COG3 / Fold change vs veh, COG3 / RFU, DIAPH2 / Fold change vs veh, DIAPH2 / RFU, SKA2 / Fold change vs veh, SKA2 / RFU, AFF3 / Fold change vs veh, AFF3 / RFU, LMF1 / Fold change vs veh, LMF1 / RFU, IPO11 / Fold change vs veh, IPO11 / RFU, DFFB / Fold change vs veh, DFFB / RFU, FOXP1 / Fold change vs veh, FOXP1 / RFU, CARD8 / Fold change vs veh, CARD8 / RFU, STRN3 / Fold change vs veh, STRN3 / RFU, ADK / Fold change vs veh, ADK / RFU, RASSF2 / Fold change vs veh, RASSF2 / RFU, WIPF1 / Fold change vs veh, WIPF1 / RFU, LARP1B / Fold change vs veh, LARP1B / RFU, RASA1 / Fold change vs veh, RASA1 / RFU, RB1 / Fold change vs veh, RB1 / RFU, PPFIA1 / Fold change vs veh, PPFIA1 / RFU, MAT2A / Fold change vs veh, MAT2A / RFU, CCT5 / Fold change vs veh, CCT5 / RFU, WDR92 / Fold change vs veh, WDR92 / RFU, CUX1 / Fold change vs veh, CUX1 / RFU, TTC7A / Fold change vs veh, TTC7A / RFU, TMEM135 / Fold change vs veh, TMEM135 / RFU, DEPTOR / Fold change vs veh, DEPTOR / RFU, CPM / Fold change vs veh, CPM / RFU, DNAJB6 / Fold change vs veh, DNAJB6 / RFU, CACNA2D3 / Fold change vs veh, CACNA2D3 / RFU, DTX4 / Fold change vs veh, DTX4 / RFU, TFCP2 / Fold change vs veh, TFCP2 / RFU, GMCL1 /// GMCL1P1 / Fold change vs veh, GMCL1 /// GMCL1P1 / RFU, AEBP2 / Fold change vs veh, AEBP2 / RFU, SNHG1 /// SNORD22 /// SNORD25 /// SNORD26 /// SNORD27 /// SNORD28 /// SNORD29 /// SNORD31 / Fold change vs veh, SNHG1 /// SNORD22 /// SNORD25 /// SNORD26 /// SNORD27 /// SNORD28 /// SNORD29 /// SNORD31 / Fold change (Aza/veh), C12orf56 (ProbeSet 11735607_a_at) / Fold change (ACY-1035/veh), C12orf56 (ProbeSet 11735607_a_at) / Fold change (Aza/veh), FGFR1OP (ProbeSet 11751329_s_at) / Fold change (ACY-1035/veh), FGFR1OP (ProbeSet 11751329_s_at) / Fold change (Aza/veh), VPS36 (ProbeSet 11739960_a_at) / Fold change (ACY-1035/veh), VPS36 (ProbeSet 11739960_a_at) / RFU SYPL1 (11715823_x_at) / Fold change /veh SYPL1 (11715823_x_at) / RFU IGFBP7 (11715501_s_at) / Fold change /veh IGFBP7 (11715501_s_at) / RFU REEP3 (11722064_at) / Fold change /veh REEP3 (11722064_at) / RFU IGLL1 (11728026_x_at) / Fold change /veh IGLL1 (11728026_x_at): dose or concentration left out as unconfirmed
Details: MV-4-11 cells, 48 hours

SMILES: Nc1ccc(-c2cccs2)cc1NC(=O)c1ccc2c(c1)cc(C1CC1)n2CCN1CCOCC1 [ACY-1035]
- RFU OASL (11726364_x_at): 41.33 RFU
